These results are taken from ChEMBL document CHEMBL4396891, “Recent update on anti-dengue drug discovery” (Eur J Med Chem, 2019).

The structures appear in SMILES notation. pEC50, pIC50: −log10 of the molar value. In brackets after ≈: the same amount, converted by molar mass.

For experiment [1], the system named is Dengue virus. The experiment in a line: Antiviral activity against dengue virus infected in HeLa cells assessed as reduction in viral propagation after 72 hrs by RT-qPCR analysis. Type of experiment: functional, organism-based. On the technique in general: Quantitative PCR measures a nucleic acid by following its amplification.
Experiment [2] has as its system Dengue virus. The experiment is described as follows: Antiviral activity against dengue virus. Type of experiment: functional, organism-based.
Experiment [3] relates to dengue virus type 2. The experiment in a line: Antiviral activity against DENV2. The format is functional, organism-based.
Experiment [4] concerns dengue virus type 2. The experiment is described as follows: Antiviral activity against DENV2 infected in BHK-21 cells assessed as viral titer by plaque assay. Type of experiment: functional, organism-based.
Experiment [5] concerns the target T1, Nonstructural protein 5 (Dengue virus, UniProt V5TFZ2). The experiment in a line: Inhibition of dengue virus NS5 RNA dependent RNA polymerase.
In experiment [6] the test system is dengue virus type 3. The experiment is described as follows: Antiviral activity against DENV3 infected in African green monkey Vero cells assessed as reduction in viral replication at 10 uM after 4 days by qRT-PCR analysis relative to control. The format is functional. To be noted: 96 h.
The subject of experiment [7] is dengue virus type 1. The experiment is described as follows: Antiviral activity against DENV1 infected in African green monkey Vero cells assessed as reduction in viral replication at 10 uM after 4 days by qRT-PCR analysis relative to control. Type of experiment: functional. To be noted: 96 h.
Experiment [8] relates to dengue virus type 4. The experiment is described as follows: Antiviral activity against DENV4 infected in African green monkey Vero cells assessed as reduction in viral replication at 10 uM after 4 days by qRT-PCR analysis relative to control. Type of experiment: functional. To be noted: 96 h.
Experiment [9] deals with dengue virus type 2. The experiment is described as follows: Antiviral activity against DENV2 infected in African green monkey Vero cells assessed as reduction in viral replication at 10 uM after 4 days by qRT-PCR analysis relative to control. Type of experiment: functional. To be noted: 96 h.
For experiment [10], the target named is Genome polyprotein (dengue virus type 2) (UniProt P29990). The experiment in a line: Inhibition of DENV2 NS2B-NS3 serine protease.
Experiment [11] relates to dengue virus type 2. The experiment in a line: Antiviral activity against DENV2 infected in human Huh-7 cells. The format is functional, organism-based.
The test system of experiment [12] is dengue virus type 2. The experiment is described as follows: Antiviral activity against DENV2 infected in BHK-21 cells by MTTR assay. Type of experiment: functional, organism-based.
Experiment [13] has as its system dengue virus type 2. The experiment in a line: Antiviral activity against DENV2 New Guinea C infected in human Huh7 cells assessed as reduction in viral titer after 3 to 4 days by MTT assay. The format is functional, organism-based. To be noted: Huh-7. On the technique in general: Formazan colour is commonly taken as a measure of viable cells.
The target of experiment [14] is T2, Genome polyprotein (dengue virus type 2, UniProt P29990). The experiment in a line: Inhibition of DENV2 NS2B-NS3 serine protease using Bz-Nle-Lys-Arg-Arg-AMC as substrate after 15 mins by fluorescence assay.
The test system of experiment [15] is dengue virus type 2. The experiment is described as follows: Antiviral activity against DENV2 infected in BHK-21 cells assessed as viral replication after 24 to 48 hrs by luciferase reporter gene assay. The format is functional, organism-based. In general terms: In a reporter assay the amount or activity of a reporter protein is the signal.
Experiment [16] has as its system dengue virus type 3. The experiment in a line: Antiviral activity against DENV3. Type of experiment: functional, organism-based.
The test system of experiment [17] is dengue virus type 1. The experiment is described as follows: Antiviral activity against DENV1. Type of experiment: functional, organism-based.
In experiment [18] the test system is dengue virus type 4. The experiment is described as follows: Antiviral activity against DENV4. Type of experiment: functional, organism-based.
The target in experiment [19] is T1, Nonstructural protein 5. The experiment in a line: Inhibition of N-terminal His6-tagged DENV3 NS5 RNA dependent RNA polymerase (272 to 900 residues) after 1 hr by fluorescence assay. Further details: species or system dengue virus type 3.
In experiment [20] the test system is dengue virus type 4. The experiment is described as follows: Antiviral activity against DENV4 Dakar infected in African green monkey Vero E6 cells after 3 to 4 days by RT-PCR analysis. To be noted: Vero C1008. Type of experiment: functional, organism-based.
The subject of experiment [21] is dengue virus type 2. The experiment in a line: Antiviral activity against DENV2 Martinique infected in African green monkey Vero E6 cells after 3 to 4 days by RT-PCR analysis. Type of experiment: functional, organism-based. To be noted: Vero C1008.
Experiment [22] relates to dengue virus type 3. The experiment in a line: Antiviral activity against DENV3 Bolivia infected in African green monkey Vero E6 cells after 3 to 4 days by RT-PCR analysis. The format is functional, organism-based. To be noted: Vero C1008.
For experiment [23], the system named is dengue virus type 1. The experiment in a line: Antiviral activity against DENV1 Djibouti infected in African green monkey Vero E6 cells after 3 to 4 days by RT-PCR analysis. To be noted: Vero C1008. The format is functional, organism-based.
The test system of experiment [24] is dengue virus type 2. The experiment is described as follows: Antiviral activity against DENV2 infected in BHK-21 cells assessed as reduction in viral production. Type of experiment: functional, organism-based.
For experiment [25], the system named is dengue virus type 2. The experiment is described as follows: Antiviral activity against DENV2 infected in BHK cells assessed as reduction in viral yield after 24 ro 48 hrs by luciferase reporter gene assay. The format is functional, organism-based.
Experiment [26] concerns the target T2, Genome polyprotein. The experiment in a line: Inhibition of DENV2 NS2B-NS3 serine protease expressed using Benzoyl-Nle-Lys-Arg-Arg-AMC as substrate measured preincubated for 3 mins followed by substrate addition by fluorescence assay.
The test system of experiment [27] is dengue virus type 2. The experiment in a line: Antiviral activity against DENV2 infected in BHK-21 cells assessed as viral replication. Type of experiment: functional, organism-based.

In the case of `CCN(CC)Cc1ccc(C(=O)N(CCc2ccccc2OC)[C@@H]2CCNC2)cc1`, in experiment [1], the pIC50 is 4.44 and the IC90 was found to be 35.5 µM. `O=C1C=C2CCN3Cc4cc5c(cc4[C@H]([C@@H]1O)[C@@H]23)OCO5` gave a pEC50 in experiment [2] of 5.74 to 6.40. In experiment [3], `C=C1CC/C=C(\C)CC[C@@H]2[C@@H]1CC2(C)C` [BETA-CARYOPHYLLENE] showed a pIC50 of 4.66.

Regarding `C#Cc1cccc(Nc2ncnc3cc(OCCOC)c(OCCOC)cc23)c1` [ERLOTINIB], in [4], the pEC50 is 5.39. As to `CN1CCN(CCCN2c3ccccc3Sc3ccc(Cl)cc32)CC1` [PROCHLORPERAZINE], the pEC50 in experiment [3] was 7.06.

In turn, `C=C(C)[C@@H]1CC[C@]2(C(=O)O)CC[C@]3(C)[C@H](CC[C@@H]4[C@@]5(C)CC[C@H](O)C(C)(C)[C@@H]5CC[C@]43C)[C@@H]12` [BETULINIC ACID] had a negative logarithm of the IC50 (pIC50) in experiment [5] of 5.68 to 5.77. As to `N#C/C(=C\c1ccc(-c2ccc(C(=O)O)cc2)s1)c1nc2cc(Cl)ccc2[nH]1`, the inhibition at 10 µM in experiment [6], in [7], in experiment [8] and in experiment [9] was 50 to 82% in each case. In experiment [10], `CCCCC1C(C(=O)CC)C(c2ccccc2)CCN1C(=O)OC(C)(C)C` (centres undefined) yielded an INH of 214 µM. In experiment [3], this molecule showed a pEC50 of 5.49.

For `O=c1c2cc(O)c(O)cc2oc2cc(O)c([C@@H]3O[C@H](CO)[C@@H](O)[C@H](O)[C@H]3O/C=C/c3ccc(O)c(O)c3)c(O)c12`, the response in [11] was half-maximal at 4.1 mg/L (≈ 7.37 µM) (EC50). `CC(C)C[C@@H]1NC(=O)[C@@H]2C[C@@H](O)CN2C1=O` had a negative-log EC50 (pEC50) in [2] of 4.67 to 4.95.

For the molecule `CC1(C)O[C@H]1[C@H]1C[C@@H]([C@H]2CC[C@]3(C)C4=CC[C@H]5C(C)(C)C(=O)CC[C@]5(C)[C@H]4CC[C@@]23C)[C@H](O)O1`, in experiment [12], the pEC50 was 4.92. For `COc1cc(/C(C#N)=C/c2cc3ccccc3[nH]2)cc(OC)c1OC`, in experiment [13], the pEC50 is 5.09. The molecule `CC[C@H]1C[C@H]2C[N@]3CCc4c([nH]c5ccc(OC)cc45)[C@](C(=O)OC)(C2)[C@H]13` showed a pEC50 in experiment [3] of 4.99 to 5.59.

For the molecule `COc1cc(/C(C#N)=C/c2cc3ccccc3s2)cc(OC)c1OC`, the pEC50 in experiment [13] is 5.14. On to `CC(=O)O[C@@H]1C(=O)C=C2CCN3Cc4cc5c(cc4[C@H]1[C@@H]23)OCO5`, for which, in experiment [2], the pEC50 was 5.74 to 6.40.

In the case of `O=C1c2ccccc2C(=O)N1c1ccc(S(=O)(=O)Nc2cccc3ccccc23)cc1`, in [14], the pIC50 is 3.91. Regarding `CCN(CC)Cc1cc(Nc2ccnc3cc(Cl)ccc23)ccc1O` [AMODIAQUINE], in experiment [15], the negative-log IC50 (pIC50) is 5.97 and the IC90 is 2.69 µM. As for `Oc1cccc(Nc2nc(NCc3ccc(-c4ccccc4)cc3)nc3nc[nH]c23)c1`, the pEC50 in experiment [16] is 5.66 to 5.86; in experiment [17], 5.66 to 5.86; in experiment [3] it was 5.55; in experiment [18], 5.66 to 5.86. For `O=C(N[C@@H](Cc1ccc(O)cc1)C(=O)O)c1cc(-c2ccccc2)c(=O)n2c1sc1ccc(OC3CCCCC3)cc12`, the pIC50 was 5.82 in experiment [19]; 4.82 to 5.17 in experiment [20]; 4.82 to 5.17 in experiment [21]; 4.82 to 5.17 in experiment [22]; 4.82 to 5.17 in [23].

Turning to `Cc1cc(N2CCN(C)CC2)ccc1NC(=O)c1c2c(nc3ccccc13)CCN(Cc1ccccc1)C2`, the pEC50 in experiment [24] is 5.30.

`CCCCC1C(C(=O)N(C)OC)C(c2ccccc2)CCN1C(=O)OC(C)(C)C` (centres undefined) had an INH in experiment [10] of 257 µM. The same molecule had a negative-log EC50 (pEC50) in experiment [3] of 5.62. For `O[C@@H](c1cc(C(F)(F)F)nc2c(C(F)(F)F)cccc12)[C@H]1CCCCN1` [(S,R)-MEFLOQUINE], in experiment [25], the pEC50 was 5.49. As for `CC(C)=CCC/C(C)=C/C=O` [CITRAL], the pIC50 in experiment [3] is 4.51. The molecule `Cc1ccc(C(=O)c2cc(O)c(O)c([N+](=O)[O-])c2)cc1` [TOLCAPONE] gave a pIC50 in experiment [26] of 5.94 to 6.19. Besides, in experiment [27], the negative logarithm of the EC50 (pEC50) was 5.64.

In general, pIC50 refers to the negative decadic logarithm of the IC50, by convention in mol/L. What is called IC90 is the point of the concentration-response curve where the effect stands at 90%. Usually pEC50 stands for the EC50 on a negative log10 scale, so that one unit is a factor of ten. As a reminder, the inhibition is the change of the read-out against control, counted positive when it falls. As usually defined, the EC50 is the midpoint of the concentration-response curve.
